Experimental data published in ChEMBL document CHEMBL1143051, “Novel cationic lipophilic peptides for oligodeoxynucleotide delivery” (Bioorg Med Chem, 2007).
Square brackets hold non-standard residues; d marks the D form. Peptide text beside a SMILES is read from it. ξ: configuration not given here. ξGly(decyl) = CCCCCCCCCCC(N)C(=O)O

Assays:
[1] = Inhibition of IL2 production in antigen stimulated mouse 2B4.11 T hybridoma cells at 5 uM; type: functional
[2] = Inhibition of IL2 production in antigen stimulated mouse 2B4.11 T hybridoma cells at 10 uM; type: functional
[3] = Inhibition of IL2 production in antigen stimulated mouse 2B4.11 T hybridoma cells at 25 uM; type: functional
[4] = Apparent permeability across human Caco-2 cells; type: ADME, cell-based
[5] = Effect on transfection efficacy in human D407 cells assessed as reduction of hVEGF expression after 24 hrs by ELISA; type: functional
[6] = Effect on transfection efficacy in human D407 cells assessed as reduction of hVEGF expression after 48 hrs by ELISA; type: functional
[7] = Toxicity assessed as induction of haemolysis in rat erythrocytes at 1 mM after 30 mins; type: cell-based, Erythrocyte; settings: read-out: Activity
T-cell = experiment: Inhibition of activation of antigen stimulated mouse 2B4.11 T cells assessed as IL2 production; type: functional, cell-based

Row | Papp [4] | Compound | Inhibition [1] | Inhibition [2] | Inhibition [3] | Inhibition [5] | Inhibition [6] | hemolysis at 0.5 h, 1000 µM [7] | Activity (T-cell)
1 | 0.042 ×10⁻⁶ cm/s | CC[C@H](C)[C@H](NC(=O)[C@H](CCCNC(=N)N)NC(=O)[C@H](CC(C)C)NC(=O)CN)C(=O)N[C@@H](CC(C)C)C(=O)N[C@@H](CC(C)C)C(=O)N[C@@H](CC(C)C)C(=O)N[C@@H](CCCCN)C(=O)N[C@H](C(=O)O)C(C)C (H-GLRILLLKV-OH) | 107% | 102.53% | 74.52% | 55% | 63% | < 2% | –
2 | 0.11 ×10⁻⁶ cm/s | CCCCCCCCCCC(N)C(=O)NCC(=O)N[C@@H](CC(C)C)C(=O)N[C@@H](CCCNC(=N)N)C(=O)N[C@H](C(=O)N[C@@H](CC(C)C)C(=O)N[C@@H](CC(C)C)C(=O)N[C@@H](CC(C)C)C(=O)N[C@@H](CCCCN)C(=O)N[C@H](C(=O)O)C(C)C)[C@@H](C)CC (stereo partly specified) (H-[ξGly(decyl)]GLRILLLKV-OH) | 105.7% | 48.13% | 81.17% | 70% | 76% | < 2% | Dose-dependent effect
3 | 0.555 ×10⁻⁶ cm/s | OC[C@@H](O)[C@@H](O)[C@H](O)[C@H](O)CO [MANNITOL] | – | – | – | – | – | – | –
